Data as given in patent US20250109135A1, “NOVEL ISOINDOLINONE DERIVATIVE COMPOUNDS AS CASPASE INHIBITORS” (INNOVO THERAPEUTICS INC., priority 2022, published 2025).
Where two headings read alike, the source gives them in different places.

Tests used:
[1] = target: T1, recombinant human Caspase-1 (Homo sapiens, UniProt P29466); experiment: Caspase-1 inhibitory activity, fluorescent substrate Ac-YVAD-AFC; assay type: biochemical
T1 construct: purchased Enzo life science
T1 sequence (P29466 120-297 limits assumed): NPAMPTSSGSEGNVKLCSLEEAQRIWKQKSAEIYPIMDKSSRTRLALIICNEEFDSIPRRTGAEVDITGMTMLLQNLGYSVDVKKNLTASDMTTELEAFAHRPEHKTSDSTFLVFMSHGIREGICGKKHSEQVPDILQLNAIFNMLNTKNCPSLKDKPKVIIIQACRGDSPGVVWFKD
T1 sequence (P29466 317-404 limits assumed): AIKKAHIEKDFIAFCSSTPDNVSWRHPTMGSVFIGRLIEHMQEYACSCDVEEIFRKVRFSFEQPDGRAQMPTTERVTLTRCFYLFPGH
Procedure: To determine the Caspase-1 inhibitory activity of the compounds of the present invention prepared in Example, Caspase-1 activity was measured using a substrate with a fluorescent dye attached to it. […] The compound was dissolved in DMSO and stored at −20° C. Enzymatic reactions were carried out in a buffer comprising 50 mM HEPES (pH 8.0), 50 mM KCl, 200 mM NaCl, 10 mM DTT, 0.1% CHAPS (w/v). Enzyme inactivation was measured in the presence of different concentrations of the compound using the fluorescent substrate N-Acetyl-Tyr-Val-Ala-Asp-7-amido-4-trifluoromethylcoumarin (Ac-YVAD-AFC) (Sigma) at a concentration of 50 μM and 1 unit of recombinant human Caspase-1 (Enzo life science). A CLARIOstar Plus spectrometer (BMG Labtech) was used to measure the reaction rate as a function of time in the 400/505 nm (Ex/Em) wavelength band. […] If kobs/[I] is 20 or more, it is denoted as A, if it is 10 or more but less than 20, it is denoted as B, if it is 1 or more but less than 10, it is denoted as C, and if it is less than 1, it is denoted as D.
In the above equation, At means the enzyme reaction rate at time t (min), and Amax means the maximum reaction rate.

[2] = system: Secreted IL-1β in THP-1 cells; experiment: Interleukin-1β inhibitory activity in human monocytic cells THP-1 (ELISA); assay type: cell-based; settings: compound 100 nM, PMA-differentiated THP-1, LPS 10 μg/ml then 5 mM ATP, 24 h
Procedure: Caspase-1 is known as […] (ICE). Activated Caspase-1 is involved in the cleavage of pro-form IL-1β to produce the mature form, which is then secreted to induce inflammation. Therefore, the compounds identified in Experimental example 1 were tested to determine if their Caspase-1 inhibitory activity affected the production of […].
THP-1 (ATCC) cells were cultured in RPMI 1640 (Hyclone) growth medium comprising 10% Fetal bovine serum (FBS, Gibco) and antibiotics (100 U/ml Penicillin, 0.1 mg/ml Streptomycin, Cytiva) under 37° C., 5% CO2 conditions. Cultured THP-1 cells were seeded in growth medium to a concentration of 3×10^5 cells/well in 24-well plates (Celvest) and then treated with 1 μM Phorbol 12-myristate 13-acetate (PMA) (Sigma) for 24 hours to induce differentiation. Differentiated THP-1 were pre treated with 10 μg/ml Lipopolysaccharide (LPS, from E. coli 0111:B4 (InvivoGen)) in serum free RPMI 1640 medium for 24 hours to induce an inflammatory response. After removal of LPS, the compounds were pretreated for 1 h at a concentration of 100 nM using the same medium, followed by the addition of 5 mM ATP (InvivoGen) and incubation for 24 h in an incubator. The treated medium was collected and centrifuged, and IL-1β was quantified using an Enzyme linked immunoassay kit (ELISA kit, R&D system), and absorbance was measured at 450 nm using a CLARIOstar Plus spectrometer. Inhibitory activity was denoted as a if it was 50% or more, b if it was 30% or more but less than 50%, c if it was 10% or more but less than 30%, and d if it was less than 10%.

Jurkat cells = experiment: Apoptosis inhibition activity in human T-lymphocyte cells Jurkat (anti-FAS antibody, intracellular ATP); assay type: cell-based; settings: compound 50 nM, 1 μg/ml anti-FAS antibody 24 h, ATP luminescence
Procedure: To evaluate the effect of the compound of the present invention on apoptosis, Jurkat (ATCC) cells were treated with anti-FAS antibody CH-11 (Merck) to induce apoptosis via the Fas (CD95) receptor, which was assessed by the amount of intracellular ATP.
Jurkat cells were cultured in RPMI 1640 growth medium comprising 10% FBS and antibiotics (100 U/ml Penicillin, 0.1 mg/ml Streptomycin) under 37° C., 5% CO2 conditions. Cultured cells were seeded in growth medium to a concentration of 8×10^4 cells/well in 96-well plates (SPL), pretreated with compound at a concentration of 50 nM for 1 hour, and then treated with 1 μg/ml anti-FAS antibody for 24 hours in an incubator. After 24 h, an ATP lite Luminescence assay kit (PerkinElmer) was used to measure ATP and luminescence was measured at 580 nm using a CLARIOstar Plus spectrometer. If the inhibitory activity is 30% or more, it is denoted as a′, if it is 20% or more but less than 30%, it is denoted as b′, if it is 10% or more but less than 20%, it is denoted as c′, and if it is less than 10%, it is denoted as d′.

[3] = pH 8, 1 unit recombinant human Caspase-1, 50 μM Ac-YVAD-AFC, read-out: kobs/[I] Caspase-1
[4] = pH 8, read-out: kobs/[I] Caspase-1

SMILES | kinact/KI [1, 3] | inhibition at 0.1 µM [2] | inhibition at 0.05 µM (Jurkat cells) | kinact/KI [1, 4]
CCC(C(=O)NC(CC(=O)O)C(=O)CF)N1Cc2ccc(-c3ccccc3)cc2C1=O (centres unmarked) [Compound 1, 5-fluoro-4-oxo-3-(2-(1-oxo-6-phenylisoindolin-2-yl)butanamido)pentanoic acid] | 0.0167 to 0.167 M⁻¹ s⁻¹ | 10 to 30% | 20 to 30% | 
CCC(C(=O)NC(CC(=O)O)C(=O)CF)N1Cc2ccc(-c3cccc4ccccc34)cc2C1=O (centres unmarked) [Compound 2, 5-fluoro-3-(2-(6-(naphthalen-1-yl)-1-oxoisoindolin-2-yl)butanamido)-4-oxopentanoic acid] | 0.0167 to 0.167 M⁻¹ s⁻¹ | 30 to 50% | 10 to 20% | 
CCC(C(=O)NC(CC(=O)O)C(=O)CF)N1Cc2ccc(-c3ccc(C(=O)O)cc3)cc2C1=O (centres unmarked) [Compound 17, 4-(2-(1-((1-carboxy-4-fluoro-3-oxobutan-2-yl)amino)-1-oxobutan-2-yl)-3-oxoisoindolin-5-yl)benzoic acid] | 0.0167 to 0.167 M⁻¹ s⁻¹ | 10 to 30% |  | 
CCC(C(=O)NC(CC(=O)O)C(=O)CF)N1Cc2ccc(N3CCN(c4nsc5ccccc45)CC3)cc2C1=O (centres unmarked) [Compound 19, 3-(2-(6-(4-(benzo[d]isothiazol-3-yl)piperazin-1-yl)-1-oxoisoindolin-2-yl)butanamido)-5-fluoro-4-oxopentanoic acid] | < 0.0167 M⁻¹ s⁻¹ | < 10% |  | 
CCC(C(=O)NC(CC(=O)O)C(=O)CF)N1Cc2ccc(-c3ccc(C(F)(F)F)nc3)cc2C1=O (centres unmarked) [Compound 20, 5-fluoro-4-oxo-3-(2-(1-oxo-6-(6-(trifluoromethyl)pyridin-3-yl)isoindolin-2-yl)butanamido)pentanoic acid] | 0.0167 to 0.167 M⁻¹ s⁻¹ | 10 to 30% |  | 
CCC(C(=O)NC(CC(=O)O)C(=O)CF)N1Cc2ccc(-c3cnc(N)nc3)cc2C1=O (centres unmarked) [Compound 21] | 0.0167 to 0.167 M⁻¹ s⁻¹ | 30 to 50% |  | 
CCC(C(=O)NC(CC(=O)O)C(=O)CF)N1Cc2ccc(-c3cccc4ccncc34)cc2C1=O (centres unmarked) [Compound 35, 5-fluoro-3-(2-(6-(isoquinolin-8-yl)-1-oxoisoindolin-2-yl)butanamido)-4-oxopentanoic acid] |  | < 10% |  | 0.0167 to 0.167 M⁻¹ s⁻¹
CCC(C(=O)NC(CC(=O)O)C(=O)CF)N1Cc2ccc(-c3cccc4cnccc34)cc2C1=O (centres unmarked) [Compound 36, 5-fluoro-3-(2-(6-(isoquinolin-5-yl)-1-oxoisoindolin-2-yl)butanamido)-4-oxopentanoic acid] |  | < 10% |  | 0.0167 to 0.167 M⁻¹ s⁻¹
CC(C)[C@@H](C(=O)NC(CC(=O)O)C(=O)CF)N1Cc2ccc(N3CCCC3)cc2C1=O (stereo partly drawn) [Compound 43, 5-fluoro-3-((S)-3-methyl-2-(1-oxo-6-(pyrrolidin-1-yl)isoindolin-2-yl)butanamido)-4-oxopentanoic acid] |  | 10 to 30% |  | < 0.0167 M⁻¹ s⁻¹
CC[C@@H](C(=O)N[C@@H](CC(=O)O)C(=O)COc1c(F)c(F)cc(F)c1F)N1Cc2ccc(N3CCCC3)cc2C1=O [Compound 53, (S)-4-oxo-3-((S)-2-(1-oxo-6-(pyrrolidin-1-yl)isoindolin-2-yl)butanamido)-5-(2,3,5,6-tetrafluorophenoxy)pentanoic acid] |  | < 10% |  | 0.0167 to 0.167 M⁻¹ s⁻¹
CC[C@@H](C(=O)NC(CC(=O)O)C(=O)CF)N1Cc2cc(-c3csc4ccccc34)ccc2C1=O (stereo partly drawn) [Compound 59, 3-((S)-2-(5-(benzo[b]thiophen-3-yl)-1-oxoisoindolin-2-yl)butanamido)-5-fluoro-4-oxopentanoic acid] |  | < 10% |  | < 0.0167 M⁻¹ s⁻¹
CC[C@@H](C(=O)NC(CC(=O)O)C(=O)CF)N1Cc2cc(-c3ccc4occc4c3)ccc2C1=O (stereo partly drawn) [Compound 60, 3-((S)-2-(5-(benzofuran-5-yl)-1-oxoisoindolin-2-yl)butanamido)-5-fluoro-4-oxopentanoic acid] |  | < 10% |  | < 0.0167 M⁻¹ s⁻¹
CC[C@@H](C(=O)NC(CC(=O)O)C(=O)CF)N1Cc2cc(-c3cccc4ccccc34)ccc2C1=O (stereo partly drawn) [Compound 61, 5-fluoro-3-((S)-2-(5-(naphthalen-1-yl)-1-oxoisoindolin-2-yl)butanamido)-4-oxopentanoic acid] |  | < 10% |  | < 0.0167 M⁻¹ s⁻¹

Second part, led by results:

kinact/KI [1, 3] | SMILES | inhibition at 0.1 µM [2] | inhibition at 0.05 µM (Jurkat cells) | kinact/KI [1, 4]
0.0167 to 0.167 M⁻¹ s⁻¹ | CCC(C(=O)NC(CC(=O)O)C(=O)CF)N1Cc2ccc(-c3ccnc(N)c3)cc2C1=O (centres unmarked) [Compound 23, 3-(2-(6-(2-aminopyridin-4-yl)-1-oxoisoindolin-2-yl)butanamido)-5-fluoro-4-oxopentanoic acid] | < 10% |  | 
0.0167 to 0.167 M⁻¹ s⁻¹ | CCC(C(=O)NC(CC(=O)O)C(=O)CF)N1Cc2ccc(-c3cnn(C)c3)cc2C1=O (centres unmarked) [Compound 24, 5-fluoro-3-(2-(6-(1-methyl-1H-pyrazol-4-yl)-1-oxoisoindolin-2-yl)butanamido)-4-oxopentanoic acid] | 10 to 30% |  | 
0.0167 to 0.167 M⁻¹ s⁻¹ | CCC(C(=O)NC(CC(=O)O)C(=O)CF)N1Cc2ccc(-c3ccn(C)n3)cc2C1=O (centres unmarked) [Compound 25, 5-fluoro-3-(2-(6-(1-methyl-1H-pyrazol-3-yl)-1-oxoisoindolin-2-yl)butanamido)-4-oxopentanoic acid] | 10 to 30% |  | 
0.0167 to 0.167 M⁻¹ s⁻¹ | CCC(C(=O)NC(CC(=O)O)C(=O)CF)N1Cc2ccc(-c3ccsc3)cc2C1=O (centres unmarked) [Compound 28, 5-fluoro-4-oxo-3-(2-(1-oxo-6-(thiophen-3-yl)isoindolin-2-yl)butanamido)pentanoic acid] | 10 to 30% |  | 
0.0167 to 0.167 M⁻¹ s⁻¹ | CCC(C(=O)NC(CC(=O)O)C(=O)CF)N1Cc2ccc(-c3ccnc4ccccc34)cc2C1=O (centres unmarked) [Compound 31, 5-fluoro-4-oxo-3-(2-(1-oxo-6-(quinolin-4-yl)isoindolin-2-yl)butanamido)pentanoic acid] | < 10% |  | 
0.0167 to 0.167 M⁻¹ s⁻¹ | CCC(C(=O)NC(CC(=O)O)C(=O)CF)N1Cc2ccc(-c3ccc4scnc4c3)cc2C1=O (centres unmarked) [Compound 32, 3-(2-(6-(benzo[d]thiazol-5-yl)-1-oxoisoindolin-2-yl)butanamido)-5-fluoro-4-oxopentanoic acid] | < 10% |  | 
0.0167 to 0.167 M⁻¹ s⁻¹ | CCC(C(=O)NC(CC(=O)O)C(=O)CF)N1Cc2ccc(-c3cnn4ccccc34)cc2C1=O (centres unmarked) [Compound 33, 5-fluoro-4-oxo-3-(2-(1-oxo-6-(pyrazolo[1,5-a]pyridin-3-yl)isoindolin-2-yl)butanamido)pentanoic acid] | < 10% |  | 
0.0167 to 0.167 M⁻¹ s⁻¹ | CCC(C(=O)NC(CC(=O)O)C(=O)CF)N1Cc2ccc(-c3cccc4ncccc34)cc2C1=O (centres unmarked) [Compound 34, 5-fluoro-4-oxo-3-(2-(1-oxo-6-(quinolin-5-yl)isoindolin-2-yl)butanamido)pentanoic acid] | < 10% |  | 
